According to US20130302442A1, “METHODS OF USING (4S,4AS,5AR,12AS)-4-DIMETHYLAMINO-3,10,12,12A-TETRAHYDROXY-7-[(METHOXY(METHYL)AMINO)-METHYL]-1,11-DIOXO-1,4,4A,5,5A,6,11,12A-OCTAHYDRO-NAPHTHACENE-2-CARBOXYLIC ACID AMIDE” (priority 2012, published 2013):
≈ marks a conversion by molar mass, not a printed value. Read-outs that look alike come from different tables or passages of the source.

Legend:
Chlamydia trachomatis [1] = experiment: In vitro susceptibility testing of Chlamydia trachomatis in HEp-2 cells (first study); assay type: cell-based; settings: Chlamydia trachomatis, C. trachomatis strains, read-out: MIC at which 90% of the strains were inhibited (MIC90)
Chlamydia trachomatis [2] = experiment: Susceptibility testing (MIC, MBC) of 10 isolates of C. trachomatis in HEp-2 cells; assay type: cell-based
Chlamydia pneumoniae = experiment: Susceptibility testing (MIC, MBC) of 10 isolates of C. pneumoniae in HEp-2 cells; assay type: cell-based
Helicobacter pylori [3] = experiment: In vitro MIC against multiple isolates of H. pylori; assay type: cell-based; settings: for MIC: read-out: MIC
Helicobacter pylori [4] = settings: H. pylori reference strain 3718, ATCC 43504; Clinical and Laboratory Standards Institute quality control range; cited from earlier work
Bifidobacterium bifidum = experiment: In vitro MIC testing against anaerobic bacteria; assay type: cell-based; settings: ATCC15696; Bifidobacterium bifidum 3965, ATCC 15696
Bifidobacterium brevi = experiment: In vitro MIC testing against anaerobic bacteria; assay type: cell-based; settings: ATCC15698; Bifidobacterium brevi 3967, ATCC 15698
Bifidobacterium infantis = experiment: In vitro MIC testing against anaerobic bacteria; assay type: cell-based; settings: ATCC15702; Bifidobacterium infantis 3966, ATCC 15702
Bifidobacterium longum = experiment: In vitro MIC testing against anaerobic bacteria; assay type: cell-based; settings: ATCC15707; Bifidobacterium longum 3968, ATCC 15707
Clostridium perfringens = experiment: microbe, parasite or virus in culture; assay type: cell-based
[5] = test system: Lactobacillus acidophilus; experiment: In vitro MIC testing against anaerobic bacteria; assay type: cell-based; settings: Lactobacillus acidophilus 0681
Lactobacillus casei = experiment: In vitro MIC testing against anaerobic bacteria; assay type: cell-based; settings: Lacticaseibacillus casei, ATCC393; Lactobacillus casei 1722, ATCC 393
Lactobacillus plantarum = experiment: In vitro MIC testing against anaerobic bacteria; assay type: cell-based; settings: Lactiplantibacillus plantarum, ATCC39268; Lactobacillus plantarum 2791, ATCC 39268
[6] = test system: Streptococcus intermedius; experiment: In vitro MIC testing against anaerobic bacteria; assay type: cell-based; settings: ATCC27335; Streptococcus intermedius 1203, ATCC 27335
Bacteroides ovatus = experiment: In vitro MIC testing against anaerobic bacteria; assay type: cell-based; settings: Bacteroides ovatus 3508, read-out: MIC
[7] = test system: Prevotella melaninogenica; experiment: In vitro MIC testing against anaerobic bacteria; assay type: cell-based; settings: Prevotella melaninogenica 3443, read-out: MIC
Prevotella spp. = experiment: In vitro MIC testing against anaerobic bacteria; assay type: cell-based
Veillonella parvula = experiment: In vitro MIC testing against anaerobic bacteria; assay type: cell-based; settings: ATCC17745; Veillonella parvula 1272, ATCC 17745
P. acnes = experiment: In vitro MIC testing, antibacterial spectrum of activity; assay type: cell-based, Propionibacterium acnes; settings: Cutibacterium acnes
P. granulosum = experiment: as above; assay type: cell-based; settings: P. granulosum [clinical isolates] (3 isolates)
P. avidum = experiment: as above; assay type: cell-based; settings: P. avidum [clinical isolates] (4 isolates)
S. agalactiae = experiment: as above; assay type: cell-based; settings: Streptococcus agalactiae
S. haemolyticus = experiment: as above; assay type: cell-based; settings: Staphylococcus haemolyticus; S. haemolyticus (33 isolates); read-out: MIC90
E. faecium = experiment: as above; assay type: cell-based; settings: Enterococcus faecium
E. coli = experiment: as above; assay type: cell-based; settings: Escherichia coli; E. coli (33 isolates); read-out: MIC90
K. pneumoniae = experiment: as above; assay type: cell-based
E. cloacae = experiment: as above; assay type: cell-based; settings: Enterobacter cloacae; E. cloacae (30 isolates)
P. aeruginosa = experiment: as above; assay type: cell-based; settings: Pseudomonas aeruginosa; P. aeruginosa (11 isolates)
Salmonella Spp. = experiment: as above; assay type: cell-based; settings: Salmonella
[8] = P. acnes [clinical isolates] (55 isolates)
[9] = Klebsiella pneumoniae, K. pneumoniae (31 isolates)

## C[C@H]1COc2c(N3CCN(C)CC3)c(F)cc3c(=O)c(C(=O)O)cn1c23 [Levofloxacin]
Chlamydia trachomatis [1]
  MIC90: 0.25 µg/mL (≈ 0.692 µM)
Chlamydia trachomatis [2]; 72 h
  MIC Range: 0.125 to 0.5 µg/mL
Chlamydia trachomatis [2]; Chlamydia trachomatis, 72 h
  MIC50: 0.25 µg/mL (≈ 0.692 µM)
  MIC90: 0.25 µg/mL (≈ 0.692 µM)
Chlamydia trachomatis [2]; Chlamydia trachomatis, after passage, read-out: MBC 90%
  MBC: 0.5 µg/mL (≈ 1.38 µM)
Chlamydia trachomatis [2]; after passage
  MBC Range: 0.125 to 1 µg/mL
Chlamydia pneumoniae; 72 h
  MIC Range: 0.5 µg/mL (≈ 1.38 µM)
Chlamydia pneumoniae; Chlamydia pneumoniae, 72 h
  MIC50: 0.5 µg/mL (≈ 1.38 µM)
  MIC90: 0.5 µg/mL (≈ 1.38 µM)
Chlamydia pneumoniae; Chlamydia pneumoniae, after passage, read-out: MBC 90%
  MBC: 2 µg/mL (≈ 5.53 µM)
Chlamydia pneumoniae; after passage
  MBC 90%: 2 µg/mL (≈ 5.53 µM)
  MBC Range: 0.125 to 2 µg/mL

## Cc1ncc([N+](=O)[O-])n1CCO [Metronidazole, metronidazole]
Helicobacter pylori [3]; H. pylori clinical isolate summary
  MIC Range: ≦0.03-64 μg/mL
Helicobacter pylori [3]; Helicobacter pylori, ATCC43504, H. pylori reference strain, culture No. 3718, ATCC 43504
  MIC: 64 µg/mL (≈ 374 µM)
Helicobacter pylori [3]; Helicobacter pylori, ATCC700824, H. pylori reference strain, culture No. 3719, ATCC 700824
  MIC: 1 µg/mL (≈ 5.84 µM)
Helicobacter pylori [3]; Helicobacter pylori, ATCCBAA945, H. pylori reference strain, culture No. 3720, ATCC BAA-945
  MIC: 1 µg/mL (≈ 5.84 µM)
Helicobacter pylori [3]; Helicobacter pylori, H. pylori clinical isolate, culture No. 4368
  MIC: 0.25 µg/mL (≈ 1.46 µM)
Helicobacter pylori [3]; Helicobacter pylori, H. pylori clinical isolate, culture No. 4369
  MIC: 0.5 µg/mL (≈ 2.92 µM)
Helicobacter pylori [3]; Helicobacter pylori, H. pylori clinical isolate, culture No. 4370
  MIC: 0.12 µg/mL (≈ 0.701 µM)
Helicobacter pylori [3]; Helicobacter pylori, H. pylori clinical isolate, culture No. 4371
  MIC: 1 µg/mL (≈ 5.84 µM)
Helicobacter pylori [3]; Helicobacter pylori, H. pylori clinical isolate, culture No. 4372
  MIC: 0.25 µg/mL (≈ 1.46 µM)
Helicobacter pylori [3]; Helicobacter pylori, H. pylori clinical isolate, culture No. 4374
  MIC: 0.12 µg/mL (≈ 0.701 µM)
Helicobacter pylori [3]; Helicobacter pylori, H. pylori clinical isolate, culture No. 4375
  MIC: 0.12 µg/mL (≈ 0.701 µM)
Helicobacter pylori [3]; Helicobacter pylori, H. pylori clinical isolate, culture No. 4377
  MIC: 1 µg/mL (≈ 5.84 µM)
Helicobacter pylori [3]; Helicobacter pylori, H. pylori clinical isolate, culture No. 4503
  MIC: ≤ 0.03 µg/mL
Helicobacter pylori [3]; Helicobacter pylori, H. pylori clinical isolate, culture No. 4504
  MIC: ≤ 0.03 µg/mL
Helicobacter pylori [3]; Helicobacter pylori, H. pylori, MIC for 90% of clinical test isolates, read-out: MIC90
  MIC90: 1 µg/mL (≈ 5.84 µM)
Helicobacter pylori [3]; Helicobacter pylori, read-out: MIC50
  MIC50: 0.12 µg/mL (≈ 0.701 µM)
Helicobacter pylori [4]
  MIC, CLSI Quality Control Range: 64 to 256 µg/mL

## CN(C)[C@@H]1C(O)=C(C(N)=O)C(=O)[C@@]2(O)C(O)=C3C(=O)c4c(O)cccc4[C@@](C)(O)[C@H]3C[C@@H]12 [Tetracycline, tetracycline]
Bifidobacterium bifidum
  MIC: 1 µg/mL (≈ 2.25 µM)
Bifidobacterium brevi
  MIC: 1 µg/mL (≈ 2.25 µM)
Bifidobacterium infantis
  MIC: 1 µg/mL (≈ 2.25 µM)
Bifidobacterium longum
  MIC: 2 µg/mL (≈ 4.5 µM)
Clostridium perfringens
  MIC: > 16 µg/mL
Clostridium perfringens; Clostridium perfringens 3518
  MIC: > 16 µg/mL
[5]
  MIC: 2 µg/mL (≈ 4.5 µM)
Lactobacillus casei
  MIC: 2 µg/mL (≈ 4.5 µM)
Lactobacillus plantarum
  MIC: 2 µg/mL (≈ 4.5 µM)
[6]
  MIC: 2 µg/mL (≈ 4.5 µM)
Bacteroides ovatus
  MIC: 0.5 µg/mL (≈ 1.13 µM)
[7]
  MIC: 8 µg/mL (≈ 18 µM)
Prevotella spp.; Prevotella spp. 3564
  MIC: 1 µg/mL (≈ 2.25 µM)
Prevotella spp.; Prevotella spp. 3568
  MIC: 4 µg/mL (≈ 9 µM)
Veillonella parvula
  MIC: 1 µg/mL (≈ 2.25 µM)
P. acnes
  MIC50: 0.5 µg/mL (≈ 1.13 µM)
  MIC90: 4 µg/mL (≈ 9 µM)
P. acnes; [8]
  MIC50: 1 µg/mL (≈ 2.25 µM)
  MIC90: 2 µg/mL (≈ 4.5 µM)
P. granulosum
  MIC Range: 1 to 2 µg/mL
P. avidum
  MIC Range: 1 to 8 µg/mL
S. agalactiae
  MIC90: > 32 µg/mL
S. haemolyticus
  MIC90: > 32 µg/mL
E. faecium
  MIC50: 1 µg/mL (≈ 2.25 µM)
  MIC90: > 64 µg/mL
E. faecium; VRE
  MIC50: 2 µg/mL (≈ 4.5 µM)
  MIC90: > 64 µg/mL
E. coli
  MIC90: > 64 µg/mL
K. pneumoniae; K. pneumoniae [tetS] (7 isolates)
  MIC Range: 0.5 to 4 µg/mL
K. pneumoniae; [9]
  MIC50: 8 µg/mL (≈ 18 µM)
  MIC90: > 64 µg/mL
E. cloacae
  MIC90: > 64 µg/mL
P. aeruginosa
  MIC50: 64 µg/mL (≈ 144 µM)
Salmonella Spp.
  MIC50: 2 µg/mL (≈ 4.5 µM)
  MIC90: > 64 µg/mL
